Experimental findings from patent US9498478B2, “Spiro aminic compounds with NK1 antagonist activity” (Rottapharm Biotech Srl, priority 2011, dated 2016) are described below.

Structures are written as SMILES.

T1 sequence (P25103 whole entry): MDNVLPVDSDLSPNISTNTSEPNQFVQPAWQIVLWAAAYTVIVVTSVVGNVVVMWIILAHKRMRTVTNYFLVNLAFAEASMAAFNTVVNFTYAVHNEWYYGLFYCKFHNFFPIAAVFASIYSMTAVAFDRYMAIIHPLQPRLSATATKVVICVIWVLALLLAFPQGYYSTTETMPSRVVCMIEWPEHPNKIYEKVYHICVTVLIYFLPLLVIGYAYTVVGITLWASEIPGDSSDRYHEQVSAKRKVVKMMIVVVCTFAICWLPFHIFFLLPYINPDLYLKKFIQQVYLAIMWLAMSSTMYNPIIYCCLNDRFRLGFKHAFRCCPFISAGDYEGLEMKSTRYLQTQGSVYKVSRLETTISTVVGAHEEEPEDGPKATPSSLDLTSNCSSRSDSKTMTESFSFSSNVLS

One assay has as its target T1, human NK1 receptor (Homo sapiens, UniProt P25103).
T1 construct: human NK1 receptor endogenously expressed in U373 cells; endogenous in cells; host or cells: U373 (human U373MG astrocytoma) cells
The assay can be described thus: Antagonist activity at the human NK1 receptor endogenously expressed in U373 cells, agonist-induced cytosolic Ca2+ mobilization (fluorimetric). The note with it: U373 MG, percent inhibition of control response to 3 nM [Sar9,Met(O2)11]-SP at compound concentration 10 μM, read-out: NK1 % inh @10 μM. The format is cell-based. The protocol: Evaluation of the antagonist activity of compounds at the human NK1 receptor endogenously expressed in U373 cells was determined by measuring their effect on agonist-induced cytosolic Ca2+ ion mobilization using a fluorimetric detection method.
The cells were suspended in DMEM buffer (Invitrogen), then distributed in microplates at a density of 1.10^4 cells/well. The fluorescent probe (Fluo4 NW, Invitrogen) mixed with probenicid in HBSS buffer (Invitrogen) complemented with 20 mM Hepes (Invitrogen) (pH 7.4) was then added into each well and equilibrated with the cells for 60 min at 37° C. then 15 min at 22° C. Thereafter, the assay plates were positioned in a microplate reader (CellLux, PerkinElmer) which was used for the addition of the test compound, reference antagonist or HBSS buffer then 5 min later 3 nM [Sar9,Met(O2)11]-SP or HBSS buffer (basal control), and the measurements of changes in fluorescence intensity which varies proportionally to the free cytosolic Ca2+ ion concentration.
The compounds, dissolved in DMSO and diluted in the medium, have been analysed in the 1 nM-1 μM concentration range (every concentration in duplicate). The antagonistic activity vs receptor NK1 of invention compounds has been expressed as pKb (co-logarithm of the apparent dissociation constant calculated by using the modified Cheng Prusoff equation) or alternatively as a percent of inhibition of the control response to 3 nM [Sar^9,Met(O2)^11]-SP at a compound concentration of 10 μM.
The standard reference antagonist was L 733,060, which was tested in each experiment at several concentrations to generate a concentration-response curve from which its IC50 value is calculated. • Bibliographic reference: EISTETTER, H. R., MILLS, A., BREWSTER, R., ALOUANI, S., RAMBOSSON, C. and KAWASHIMA, E. (1992), Functional characterization of neurokinin-1 receptor on human U373MG astrocytoma cells, Glia, 6: 89.
In general terms: A change in cytosolic calcium serves as a functional read-out for many receptors and channels.
As for `Cc1ccc(-c2ccccn2)c(C(=O)N2CCC3(CC3)C[C@H]2CNc2ccc(Cl)cn2)c1` [Compound 2, (S)-(5-(((5-chloropyridin-2-yl)amino)methyl)-6-azaspiro[2.5]octan-6-yl)(5-methyl-2-(pyridin-2-yl)phenyl)methanone], the inhibition at 10 µM turned out to be 87%.
Take `Cc1ccc(-n2nccn2)c(C(=O)N2CCC3(CC3)C[C@H]2CNc2ccc(Cl)cn2)c1` [Compound 6, (S)(5-((5-chloropyridin-2-ylamino)methyl)-6-azaspiro[2.5]octan-6-yl)(5-methyl-2-(2H-1,2,3-triazol-2-yl)phenyl)methanone]: the inhibition at 10 µM amounted to 61%.
With `Cc1ccc(-c2ncccn2)c(C(=O)N2CCC3(CC3)C[C@H]2CNc2ccc(C(F)(F)F)cn2)c1` [Compound 7, (S)-(5-methyl-2-(pyrimidin-2-yl)phenyl)(5-(((5-(trifluoromethyl)pyridin-2-yl)amino)methyl)-6-azaspiro[2.5]octan-6-yl)methanone], the inhibition at 10 µM is 87%.
Take `O=C(c1cc(F)ccc1-c1ccccn1)N1CCC2(CC2)C[C@H]1CNc1ccc(Cl)cn1` [Compound 3, (S)-(5-(((5-chloropyridin-2-yl)amino)methyl)-6-azaspiro[2.5]octan-6-yl)(5-fluoro-2-(pyridin-2-yl)phenyl)methanone]: the inhibition at 10 µM was determined as 65%.
In the case of `Cc1ccc(-n2nccn2)c(C(=O)N2CCC3(CC3)C[C@H]2CNc2ccc(C(F)(F)F)cn2)c1` [Compound 5, (S)-(5-methyl-2-(2H-1,2,3-triazol-2-yl)phenyl)(5-(((5-(trifluoromethyl)pyridin-2-yl)amino)methyl)-6-azaspiro[2.5]octan-6-yl)methanone], the inhibition at 10 µM came out at 67%.
On the same count and under the same terms, with `O=C(c1cc(F)ccc1-n1nccn1)N1CCC2(CC2)C[C@H]1CNc1ccc(Cl)cn1` [Compound 4, (S)-(5-(((5-chloropyridin-2-yl)amino)methyl)-6-azaspiro[2.5]octan-6-yl)(5-fluoro-2-(2H-1,2,3-triazol-2-yl)phenyl)methanone] the figure was 61%.

Still in this assay, the particulars now being: co-logarithm of apparent dissociation constant by modified Cheng Prusoff equation, agonist 3 nM [Sar9,Met(O2)11]-SP, read-out: pKb NK1 (converted).
As to `O=C(c1cc(F)ccc1-c1ncccn1)N1CCC2(CC2)C[C@H]1CNc1ccc(Cl)cn1` [Compound 9, (S)-(5-(((5-chloropyridin-2-yl)amino)methyl)-6-azaspiro[2.5]octan-6-yl)(5-fluoro-2-(pyrimidin-2-yl)phenyl)methanone], the Kb is 2.51 nM.
For the compound `O=C(c1cc(Cl)ccc1-c1ncccn1)N1CCC2(CC2)C[C@H]1CNc1ccc(Cl)cn1` [Compound 1, (S)-(5-chloro-2-(pyrimidin-2-yl)phenyl)(5-(((5-chloropyridin-2-yl)amino)methyl)-6-azaspiro[2.5]octan-6-yl)methanone], the Kb is 2.51 nM.
As to `Cc1ccc(-c2ncccn2)c(C(=O)N2CCC3(CC3)C[C@H]2CNc2ccc(Cl)cn2)c1` [Compound 8, (S)-(5-(((5-chloropyridin-2-yl)amino)methyl)-6-azaspiro[2.5]octan-6-yl)(5-methyl-2-(pyrimidin-2-yl)phenyl)methanone], the Kb is 5.01 nM.
